Experimental data as given in publication PMC12154458, “High-Throughput Screens of Repurposing Hub and DOS Chemical Libraries Reveal Compounds with Novel and Potent Inhibitory Activity Against the Essential Non-Neuronal Acetylcholinesterase of Schistosoma mansoni (SmTAChE)” (International Journal of Molecular Sciences, 2025).
Where two headings read alike, the source gives them in different places.

Assays:
[1] = molecular target: T1, rSmTAChE (Schistosoma mansoni, UniProt A0A3Q0KMM5); assay type: biochemical;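 on Inhibition (%) (Average): mostly 20 µM final but a few compounds at 5 or 10 µM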;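 on Inhibition (%) Replicate A: mostly 20 µM final but a few compounds at 5 or 10 µM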;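 on Inhibition (%) Replicate B: mostly 20 µM final but a few compounds at 5 or 10 µM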
[2] = molecular target: recombinant human acetylcholinesterase, rHsAChE (Homo sapiens, UniProt P22303); assay: biochemical
[3] = molecular target: T1, rSmTAChE; assay: biochemical
[4] = read-out: qAC50 (IC50), rSmTAChE
[5] = read-out: qAC50 (IC50), rHsAChE
[6] = read-out: rSmTAChE HTS Inhibition (Ave, %)
[7] = dose response analysis of Drug Repurposing Hub hits against rHsAChE
[8] = read-out: HTS/rSmTAChE Inhibition (Ave, %)

recombinant human acetylcholinesterase, rHsAChE, sequence (P22303 32-614): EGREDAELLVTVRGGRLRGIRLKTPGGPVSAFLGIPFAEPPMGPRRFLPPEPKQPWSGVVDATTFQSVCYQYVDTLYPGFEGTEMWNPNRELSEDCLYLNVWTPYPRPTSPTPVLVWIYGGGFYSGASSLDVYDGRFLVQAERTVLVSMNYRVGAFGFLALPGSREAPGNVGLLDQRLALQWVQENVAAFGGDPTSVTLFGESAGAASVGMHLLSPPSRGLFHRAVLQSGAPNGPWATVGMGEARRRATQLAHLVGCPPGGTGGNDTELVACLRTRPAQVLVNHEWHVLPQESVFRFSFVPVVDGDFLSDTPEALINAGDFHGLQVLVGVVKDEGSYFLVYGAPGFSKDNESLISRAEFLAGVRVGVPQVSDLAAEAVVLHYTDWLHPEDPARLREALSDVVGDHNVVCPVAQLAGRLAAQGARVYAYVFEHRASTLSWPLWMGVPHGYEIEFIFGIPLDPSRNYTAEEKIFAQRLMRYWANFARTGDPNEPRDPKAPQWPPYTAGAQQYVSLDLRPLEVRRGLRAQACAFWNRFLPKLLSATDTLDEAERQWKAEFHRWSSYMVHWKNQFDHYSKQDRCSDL
T1 sequence (A0A3Q0KMM5 27-661 limits assumed): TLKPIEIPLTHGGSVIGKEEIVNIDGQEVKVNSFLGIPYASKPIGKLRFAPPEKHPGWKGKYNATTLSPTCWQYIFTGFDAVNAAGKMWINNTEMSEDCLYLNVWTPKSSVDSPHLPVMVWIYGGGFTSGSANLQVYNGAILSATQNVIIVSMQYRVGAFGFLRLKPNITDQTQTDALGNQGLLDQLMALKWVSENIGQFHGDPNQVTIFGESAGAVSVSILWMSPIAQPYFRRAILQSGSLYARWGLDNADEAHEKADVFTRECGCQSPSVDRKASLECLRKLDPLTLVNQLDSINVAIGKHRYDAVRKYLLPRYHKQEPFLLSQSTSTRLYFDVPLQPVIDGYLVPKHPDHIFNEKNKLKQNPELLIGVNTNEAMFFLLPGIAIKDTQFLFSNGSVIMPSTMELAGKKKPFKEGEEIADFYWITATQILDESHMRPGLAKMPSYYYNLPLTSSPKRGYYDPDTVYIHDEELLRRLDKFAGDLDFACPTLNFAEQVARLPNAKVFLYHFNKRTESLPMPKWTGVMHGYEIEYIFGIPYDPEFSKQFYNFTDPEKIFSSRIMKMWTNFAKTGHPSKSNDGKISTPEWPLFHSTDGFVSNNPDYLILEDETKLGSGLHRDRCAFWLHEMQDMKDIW

SMILES | Data Mode (curve class), rSmTAChE [1] | Data Mode (curve class), rHsAChE [2] | Inhibition (%) (Average) [3] | Inhibition (%) Replicate A [3] | Inhibition (%) Replicate B [3] | also measured
Cc1cc(C#N)cc(C)c1Oc1nc(Nc2ccc(C#N)cc2)nc(N)c1Br [BRD-K74717603-001-02-2] | decreasing (weakly active) | inactive | 74.49% | 77.10% | 71.88% | IC50 [1, 4]: > 38 µM
O=C(C[C@@H]1C[C@@H]2c3cc(NC(=O)Nc4ccccc4)ccc3O[C@@H]2[C@@H](CO)O1)NC1CCCC1 [BRD-K74918080-001-01-0] |  |  | 91.31% | 92.86% | 89.77% | rSmTAChE Data Mode [1]: decreasing (weakly active); rHsAChE Data Mode [2]: inactive
COc1ccc(NC(=O)Nc2ccc3c(c2)[C@@H]2C[C@H](CC(=O)NCc4ccc5c(c4)OCO5)O[C@H](CO)[C@@H]2O3)cc1 [BRD-K77518191-001-01-1] |  |  | 88.00% | 87.37% | 88.63% | rSmTAChE Data Mode [1]: decreasing (weakly active); rHsAChE Data Mode [2]: inactive
CCCC#Cc1ccc([C@H]2[C@@H](CO)N3C(=O)CN(S(=O)(=O)c4ccccc4C)C[C@@H]23)cc1 [BRD-K77990919-001-01-3] |  |  | 79.61% | 76.02% | 83.20% | rSmTAChE Data Mode [1]: inactive; rHsAChE Data Mode [2]: inactive
O=c1sn(-c2cccc3ccccc23)c(=O)n1Cc1ccccc1 [BRD-K81330143-001-04-8] | inactive | inactive | 88.72% | 89.17% | 88.27% | 
C[C@]12CC[C@@H]3c4ccc(O)cc4CC[C@H]3[C@@H]1CCC2=O [BRD-K81839095-001-25-1] | inactive | inactive | 94.45% | 91.12% | 97.78% | 
C=CCNc1nc(NCC=C)nc(N2CCN(C(c3ccc(F)cc3)c3ccc(F)cc3)CC2)n1 [BRD-K82677201-001-01-6] | decreasing (weakly active) | decreasing (weakly active) | 71.59% | 72.90% | 70.28% | IC50 [1, 4]: > 38 µM; IC50 [2, 5]: > 38 µM
O=C(O)CCc1cc(C(=O)c2ccc(OC3CCCC3)cc2O)ccc1OCc1ccc2c(=O)[nH]oc2c1 [BRD-K84925803-001-01-9] | decreasing (weakly active) | inactive | 87.31% | 83.68% | 90.95% | IC50 [1, 4]: > 38 µM
CC1CCCCOC(CN(C)C(=O)Nc2cccc3ccccc23)C(C)CN(C(C)CO)C(=O)c2cc(N(C)C)ccc2O1 (stereo not drawn) [BRD-K85440939-001-01-5] |  |  |  |  |  | rSmTAChE Data Mode [1]: decreasing; IC50 (µM) rHsAChE ([2]; Table 2, DOS-A library, Inactive = inactive at the maximum tested concentration (40 µM)): Inactive *; inhibition at 20 µM [3, 6]: 63.9%
C[C@H](CO)N1C[C@H](C)[C@H](CN(C)CC2CC2)OCc2ccccc2-c2c(n(C)c3ccccc23)C1=O [BRD-K90625171-001-01-1] |  |  | 64.57% | 64.87% | 64.27% | rSmTAChE Data Mode [1]: decreasing (weakly active); rHsAChE Data Mode [2]: inactive
CN(Cc1ccc(C(C)(C)C)cc1)Cc1cccc2ccccc12 [BRD-K90630139-003-05-9] | inactive | decreasing (weakly active) | 62.99% | 64.97% | 61.01% | IC50 [2, 5]: > 38 µM
O=C(O)C1(C(=O)O)CCC1.[NH2-].[NH2-].[Pt+2] [BRD-K90947825-001-02-7] | decreasing | decreasing (weakly active) | 69.15% | 70.08% | 68.22% | IC50 [1, 4]: 35.4 µM; IC50 [2, 5]: > 38 µM
CCCNC(=O)Nc1ccc(Oc2ncnc3cc(OC)c(OC)cc23)cc1Cl [BRD-K90993449-001-02-7] | decreasing (weakly active) | inactive | 77.29% | 77.00% | 77.59% | IC50 [1, 4]: > 38 µM
COc1ccc(NC(=O)Nc2ccc3c(c2)[C@H]2C[C@@H](CC(=O)NCc4ccccn4)O[C@H](CO)[C@H]2O3)cc1 [BRD-K96625719-001-01-4] |  |  | 74.63% | 75.38% | 73.88% | rSmTAChE Data Mode [1]: decreasing (weakly active); rHsAChE Data Mode [2]: inactive
CC(C)=CCC/C(C)=C/CC/C(C)=C/CSc1ccccc1C(=O)O [BRD-K98453471-001-01-7] | decreasing | decreasing | 76.52% | 77.70% | 75.33% | IC50 [1, 4]: 11.6 µM; IC50 [2, 5]: 13.7 µM
Cc1cc(Nc2ncc(Cl)c(Nc3ccccc3S(=O)(=O)C(C)C)n2)c(OC(C)C)cc1C1CCNCC1 [Ceritinib, reference compound] | decreasing |  |  |  |  | SI (Hs/Sm) [1]: 1.58; Data Mode (curve class), rHsAChE [2, 7]: decreasing (weakly active); inhibition at 20 µM [3, 8]: 67%
N.N.[Cl][Pt][Cl] [Cisplatin, reference compound] | decreasing | decreasing (weakly active) | 89.23% | 89.47% | 88.99% | SI (Hs/Sm) [1]: 9.97; fold greater potency/selectivity for SmTAChE vs. HsAChE (Selectivity Index) [1]: about 10 fold; IC50 ([1]; read-out: IC50 (µM) rSmTAChE): 3.81 µM; HTS/rSmTAChE Inhibition (Ave, %) ([3]; 20 µM): 89.23%
CC1(COc2ccc3c(c2)ncn3-c2ccc3cccc(N4CCC(N)CC4)c3n2)COC1 [Crenolanib, reference compound] | decreasing (weakly active) |  |  |  |  | SI (Sm/Hs) [2]: 1.97; IC50 ([2]; Table 3, read-out: IC50 (µM) rHsAChE): 9.91 µM; Data Mode (curve class), rHsAChE [2, 7]: decreasing; inhibition at 20 µM [3, 6]: 64.5%
CN(CCCCCCCCCCN(C)C(=O)Oc1cccc([N+](C)(C)C)c1)C(=O)Oc1cccc([N+](C)(C)C)c1 [Demecarium bromide, reference compound] | decreasing | decreasing |  |  |  | IC50 ([2]; IC50 (µM) rHsAChE): 0.02 µM; IC50 ([2]; qAC50 (IC50), rHsAChE): 0.0225 µM; inhibition at 20 µM [3, 6]: 65.3%
CCCCCCCCCCCC1=C(O)C(=O)C=C(O)C1=O [Embelin, reference compound] | decreasing |  |  |  |  | SI (Hs/Sm) [1]: 1.44; fold greater potency/selectivity for SmTAChE vs. HsAChE (Selectivity Index) [1]: 1.4 fold; IC50 ([2]; IC50 (µM) rHsAChE): 1.8 µM; Data Mode (curve class), rHsAChE [2, 7]: decreasing; inhibition at 10 µM [3, 8]: 88.7%
Brc1cc2c(cc1[C@@H]1Nc3ccccc3[C@@H]3C=CC[C@@H]31)OCO2 [G15, reference compound] | decreasing (weakly active) | decreasing (weakly active) |  | 75.36% | 80.61% | SI (Sm/Hs) [2]: 2.81; IC50 ([2]; read-out: IC50 (µM) rHsAChE): > 13.5 µM; rSmTAChE HTS Inhibition (Ave, %) ([3]; 20 µM): 77.99%
O=C(O)c1ccc(-c2c[nH]c3ncc(-c4ccccc4)cc23)cc1C1CCCC1 [GSK-650394, reference compound] | decreasing |  |  |  |  | SI (Hs/Sm) [1]: 3.46; IC50 ([2]; IC50 (µM) rHsAChE): 8.1 µM; Data Mode (curve class), rHsAChE [2, 7]: decreasing; IC50 ([2]; qAC50 (IC50), rHsAChE): 8.09 µM; inhibition at 10 µM [3, 8]: 75.4%
CC(C)c1onc(-c2c(Cl)cccc2Cl)c1COc1ccc(/C=C/c2cccc(C(=O)O)c2)c(Cl)c1 [GW-4064, reference compound] | decreasing | decreasing | 65.99% | 66.57% | 65.41% | SI (Hs/Sm) [1]: 6.00; IC50 ([1]; read-out: IC50 (µM) rSmTAChE): 1.47 µM; IC50 ([2]; read-out: IC50 (µM) rHsAChE): 8.83 µM; HTS/rSmTAChE Inhibition (Ave, %) ([3]; 20 µM): 66.00%
O=C(O)CNC(=O)c1c(O)c2ccccc2n(Cc2ccccc2)c1=O [IOX2, reference compound] | decreasing | decreasing |  | 61.67% | 70.82% | IC50 ([1]; read-out: IC50 (µM) rSmTAChE): 16.7 µM; IC50 [1, 4]: 16.7 µM; SI (Sm/Hs) [2]: 2.16; IC50 ([2]; read-out: IC50 (µM) rHsAChE): 7.75 µM; rSmTAChE HTS Inhibition (Ave, %) ([3]; 5 µM): 66.25%
COc1ccc(/C=C/CCCCOc2ccc(C(=O)c3cccc(C(=O)O)c3)cc2CCC(=O)O)cc1 [LY223982, reference compound] | decreasing | decreasing |  | 83.69% | 77.36% | IC50 ([1]; read-out: IC50 (µM) rSmTAChE): 15.2 µM; SI (Sm/Hs) [2]: 2.1; IC50 ([2]; read-out: IC50 (µM) rHsAChE): 7.22 µM; rSmTAChE HTS Inhibition (Ave, %) ([3]; 20 µM): 80.52%
O=C(Nc1ncc(SCCN2CCCC2)s1)[C@]1(c2ccc(S(=O)(=O)C3CC3)cc2)C[C@H]1C1CCCCC1 [LY2608204, reference compound] | decreasing (weakly active) | decreasing |  | 71.61% | 81.29% | IC50 ([1]; read-out: IC50 (µM) rSmTAChE): > 12 µM; SI (Sm/Hs) [2]: 23.28; IC50 ([2]; read-out: IC50 (µM) rHsAChE): 0.52 µM; rSmTAChE HTS Inhibition (Ave, %) ([3]; 20 µM): 76.45%
